Test results taken from publication PMC5651844, “YEATS2 links histone acetylation to tumorigenesis of non-small cell lung cancer” (Nature Communications, 2017).
Several values for one entry are separate records, joined by “and”; a condition that tells them apart may be missing. Equal entries are not always repeated. Entries after “also recorded” stand apart in the source; their conditions may differ. Ends that are not written are not given here.

How the values were obtained:
[1] = target: T1, YEATS2 YEATS domain (aa 201–332), wild type (Homo sapiens, UniProt Q9ULM3); assay: Isothermal titration calorimetry (ITC), wild-type YEATS domain; assay type: binding; conditions: for binding in ITC, in words: WT YEATS2 YEATS domain
T1 construct: encompassing residues 201–332 of human YEATS2; 10×His-SUMO (N, cleaved yes); made in house; host or cells: Escherichia coli BL21 (DE3)
T1 sequence (Q9ULM3 201-332): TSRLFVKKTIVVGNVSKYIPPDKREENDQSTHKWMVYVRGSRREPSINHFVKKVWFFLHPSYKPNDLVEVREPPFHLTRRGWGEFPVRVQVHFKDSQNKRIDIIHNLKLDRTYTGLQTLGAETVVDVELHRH
Method: The YEATS2 domain encompassing residues 201–332 of human YEATS2 was cloned into a pSUMOH10 vector (an in house modified vector based on pET28b) containing an N-terminal 10×His-SUMO tag. The recombinant YEATS2_201–332 was overexpressed in Escherichia coli BL21 (DE3). After overnight induction by 0.4 mM isopropyl β-D-thiogalactoside at 16 °C in TB medium, cells were collected and suspended in buffer: 20 mM Tris, pH 7.5, 0.5 M sodium citrate, 5% glycerol, 1 mM phenylmethylsulfonyl fluoride, and 20 mM imidazole. After cell lysis and centrifugation, the recombinant protein was purified to homogeneity over HisTrap, and the 10xHis-SUMO tag was cleaved by ULP1 overnight at 4 °C then removed by reloaded onto the HisTrap column. The free YEATS2_201–332 protein was finally polished by size-exclusion chromatography on a Superdex G75 column (GE Healthcare) in elution buffer: 20 mM Tris, pH 7.5, 0.5 M sodium citrate, 5% glycerol, and 2 mM β-mercaptoethanol. All YEATS2_201–332 mutants were purified in essentially the same procedures as the wild-type protein. All mutant proteins were expressed and purified essentially the same as WT YEATS2 YEATS. […] Cells were pelleted via centrifugation, flash-frozen in liquid nitrogen, and lysed by sonication. Cell lysate was centrifuged, and the supernatant was incubated with glutathione Sepharose 4B beads (GE Healthcare). The GST tag was cleaved with Prescission protease.
All calorimetric experiments of the wild type or mutant YEATS domain proteins were conducted at 15 °C using a MicroCal iTC200 instrument (GE Healthcare). The YEATS2_201–332 samples were dialyzed in the following buffer: 20 mM Tris 7.5, 0.5 M sodium citrate, 5% glycerol, and 2 mM β-mercaptoethanol. Protein concentration was determined by absorbance spectroscopy at 280 nm. Peptides (>95% purity) were quantified by weighing on a large scale and then aliquoted and freeze-dried for individual use. Acquired calorimetric titration curves were analyzed using Origin 7.0 (OriginLab) using the “One Set of Binding Sites” fitting model.

GST-YEATS2 YEATS domain = assay: Histone peptide pulldown, western blot; assay type: binding, human; conditions: 1 µg biotinylated peptide, 1–2 µg GST-fused protein, 4 °C overnight, streptavidin beads
Method: An aliquot of 1 µg of biotinylated histone peptides with different modifications were incubated with 1–2 µg of GST-fused proteins in binding buffer (50 mM Tris-HCl 7.5, 250 mM NaCl, 0.1% NP-40, 1 mM phenylmethyl sulphonyl fluoride (PMSF)) at 4 °C overnight. Streptavidin beads (Amersham) were added to the mixture, and the mixture was incubated for 1 h with rotation. The beads were then washed three times and analyzed using SDS-PAGE and western blotting. For GST pulldown, 2 µg protein were incubated with 10 µg of calf thymus total histones (Worthington) in binding buffer (50 mM Tris-HCl 7.5, 1 M NaCl, 1% NP-40, 0.5 mM EDTA, 1 mM PMSF plus protease inhibitors (Roche)) at 4 °C overnight, followed by an additional 1 h Glutathione Sepharose beads (Amersham) incubation. The beads were then washed five times and analyzed using SDS-PAGE and western blotting.

[2] = tested on: 15N-labeled YEATS domain of YEATS2 (aa 201–350); assay: NMR titration, 1H,15N HSQC; assay type: binding, human; conditions: 0.1 mM 15N-labeled YEATS domain, 1× PBS pH 6.8, 100 mM KCl, 298 K, increasing peptide (H3K27ac21–31 or H3K9ac1–12)
Method: The YEATS2 domain encompassing residues 201–332 of human YEATS2 was cloned into a pSUMOH10 vector (an in house modified vector based on pET28b) containing an N-terminal 10×His-SUMO tag. The recombinant YEATS2_201–332 was overexpressed in Escherichia coli BL21 (DE3). After overnight induction by 0.4 mM isopropyl β-D-thiogalactoside at 16 °C in TB medium, cells were collected and suspended in buffer: 20 mM Tris, pH 7.5, 0.5 M sodium citrate, 5% glycerol, 1 mM phenylmethylsulfonyl fluoride, and 20 mM imidazole. After cell lysis and centrifugation, the recombinant protein was purified to homogeneity over HisTrap, and the 10xHis-SUMO tag was cleaved by ULP1 overnight at 4 °C then removed by reloaded onto the HisTrap column. The free YEATS2_201–332 protein was finally polished by size-exclusion chromatography on a Superdex G75 column (GE Healthcare) in elution buffer: 20 mM Tris, pH 7.5, 0.5 M sodium citrate, 5% glycerol, and 2 mM β-mercaptoethanol. All YEATS2_201–332 mutants were purified in essentially the same procedures as the wild-type protein. All mutant proteins were expressed and purified essentially the same as WT YEATS2 YEATS. For NMR titrations, the YEATS domain (aa 201–350) of YEATS2 was expressed in BL21(DE3) RIL cells as a GST-fusion protein in minimal media supplemented with ^15NH4Cl (Sigma). […]

AF9 YEATS domain = conditions: ref Li et al., 2014; cited from earlier work
ENL YEATS domain = conditions: ref Wan et al., 2017; cited from earlier work

| Substance | binding in ITC, in words [1] | Kd ([1]; main text and Fig. 3e, ITC at 15 °C, N.D. = not detected, read-out: dissociation constant (KD)) [µM] | binding in histone peptide pulldown (GST-YEATS2 YEATS domain) | chemical shift perturbations in 1H,15N HSQC spectra [2] | Kd (AF9 YEATS domain) | Kd (ENL YEATS domain) [µM] | binding in ITC, in words ([1]; listed as H3K14ac) |
| --- | --- | --- | --- | --- | --- | --- | --- |
| H3K27ac: K27-acetylated H3 peptide: ITC text = H3 15–39K27ac; NMR = H3K27ac21–31; pulldown = biotinylated peptide; cited AF9/ENL peptides unspecified (ATKAARK(Ac)SAPA) | best binding substrate | 50 | bound specifically | global chemical shift perturbations | ~7 µM and 7 µM | 30 |  |
| TARKSTGGK(ac)A [H36-15K14ac, histone H3 peptide, residues 6-15, acetylated at K14] |  |  |  |  |  |  | weak or no binding; also recorded: no detectable binding |
